The results in this text go back to patent US12516038B2, “Inhibitors of antigen presentation by HLA-DR” (Janssen Pharmaceutica NV, priority 2020, dated 2026).

Assay [1] has as its system human peripheral blood CD4+ helper T cells. Kind of assay: Pan-CD4+ T cell activation (off-target assay). It counts as cell-based. The note with it: anti-CD3/anti-CD28 stimulation, IL-2 production by ELISA. The method, boiled down:
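IL-2 secretion was measured by ELISA of culture supernatant after 24 h of TCR stimulation. Stimulation used anti-CD3 coated at 1 μg/mL and 1 μg/mL soluble anti-CD28 on human blood CD4+ helper T cells without HLA-DR-expressing APCs, with compound or vehicle present.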

Assay [2] has as its system HLA-DR4 restricted mouse T cell hybridoma line (DR4.CII.36.8) with HLA-DRB1*04:01-expressing Boleth cells. Kind of assay: HLA-DR4-restricted peptide-specific T cell-based assay (hybridoma assay). The note with it: 6 h, inhibition of IL-2 production, CII259-273 peptide presented by Boleth cells. The method, boiled down: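 IC50 values derive from 4-parameter logistic fits of IL-2 AlphaLISA signal over 8-point duplicate titrations. Compound and HLA-DRB1*04:01 Boleth APCs were preincubated 1 h, 37° C., before adding CII259-273-restricted DR4.CII.36.8 hybridoma cells with peptide for 6 h at 37° C., in DMEM/1% FCS.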

The target of a further assay is HLA-DRB1*0401 (Homo sapiens (Human), UniProt P01903+P01911, A100K/A169T/DEL228-266/F76Y/I96L/K127E/L162R/M171V/N62H/P40V/Q125Y/R42H/S133A/S149N/S66Y/V115G/V209L/W38E). The assay can be described thus: HLA-DR4 HTRF assay. The note with it: inhibition of loading of Alexa Fluor 647-labeled Cit-CII peptide onto HLA-DR4 (CLIP cleaved). In kind it is binding. Summed up:
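HLA-DRB1*04:01 construct (α/β fused to human Fc, CLIP pre-cleaved by HRV3C overnight at 4° C) at 3 nM was preincubated 45 min with compound and 1 nM anti-Fc-Tb donor, then 40 nM Alexa647-Cit-CII1236-1249 peptide added. After 90 min at 37° C, the 665/620 nm HTRF ratio gave % inhibition; IC50 by nonlinear regression.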
(In general: Time-resolved FRET reads energy transfer from a long-lived donor to a nearby acceptor.)

Usually IC50 stands for the concentration that gives 50% inhibition. Lower therefore signals greater potency. Turning to `CC1(C)COc2cc(O[C@@H](c3ccncc3)c3ccc(C(N)=O)cc3)ccc2C1=O` (single isomer, unassigned) [Example 56a, (*R)-4-(((3,3-dimethyl-4-oxochroman-7-yl)oxy)(pyridin-4-yl)methyl)benzamide], the IC50 in assay [1] (Homo sapiens, T-cell, 24 h) was determined as 4600 nM; in assay [2] (Mus musculus, T-cell), 1700 nM; on HLA-DRB1*0401, 1400 nM.
The corresponding values for `CC1(C)COc2cc(O[C@H](c3ccncc3)c3ccc(C(N)=O)cc3)ccc2C1=O` (single isomer, unassigned) [Example 56b, (*S)-4-(((3,3-dimethyl-4-oxochroman-7-yl)oxy)(pyridin-4-yl)methyl)benzamide] are above 15000 nM, 6000 nM and 1300 nM.
In the case of `Cc1c(O[C@@H](c2ccc(Cl)cc2)c2ccc(C(N)=O)cc2)ccc2c1OCCC2=O` (single isomer, unassigned) [Example 57a, (*R)-4-((4-chlorophenyl)((8-methyl-4-oxochroman-7-yl)oxy)methyl)benzamide], the IC50 in assay [1] (Homo sapiens, T-cell, 24 h) was above 15000 nM; in assay [2] (Mus musculus, T-cell), 4800 nM; against HLA-DRB1*0401, 2300 nM.
Taken in the same sequence, the figures for `Cc1c(O[C@@H](c2ccncc2)c2ccc(C(N)=O)cc2)c(F)cc2c1OCCC2=O` (single isomer, unassigned) [Example 58a, (*R)-4-(((6-fluoro-8-methyl-4-oxochroman-7-yl)oxy)(pyridin-4-yl)methyl)benzamide] were 5300 nM, 180 nM and 330 nM.
The corresponding values for `Cc1c(O[C@H](c2ccncc2)c2ccc(C(N)=O)cc2)c(F)cc2c1OCCC2=O` (single isomer, unassigned) [Example 58b, (*S)-4-(((6-fluoro-8-methyl-4-oxochroman-7-yl)oxy)(pyridin-4-yl)methyl)benzamide] are 9900 nM, 2600 nM and 730 nM.
With `Cc1c(O[C@H](c2ccc(C#N)cc2)c2ccc(C(N)=O)cc2)ccc2c1OCCC2=O` (single isomer, unassigned) [Example 59a, (*R)-4-((4-cyanophenyl)((8-methyl-4-oxochroman-7-yl)oxy)methyl)benzamide], the IC50 was found to be 4700 nM in assay [1] (Homo sapiens, T-cell, 24 h); 3200 nM in assay [2] (Mus musculus, T-cell); 1200 nM at HLA-DRB1*0401.
With `Cc1c(O[C@H](c2ccc(C(N)=O)cc2)c2cccc(C#N)c2)ccc2c1OCCC2=O` (single isomer, unassigned) [Example 60a, (*R)-4-((3-cyanophenyl)((8-methyl-4-oxochroman-7-yl)oxy)methyl)benzamide], the IC50 in assay [1] (Homo sapiens, T-cell, 24 h) is 4700 nM; in assay [2] (Mus musculus, T-cell) it was 740 nM; on HLA-DRB1*0401 it was 1800 nM.
For the compound `Cc1c(O[C@@H](c2ccc(C(N)=O)cc2)c2cccc(C#N)c2)ccc2c1OCCC2=O` (single isomer, unassigned) [Example 60b, (*S)-4-((3-cyanophenyl)((8-methyl-4-oxochroman-7-yl)oxy)methyl)benzamide], the IC50 in assay [1] (Homo sapiens, T-cell, 24 h) was determined as 9900 nM; in assay [2] (Mus musculus, T-cell) it was 2300 nM; against HLA-DRB1*0401, 2000 nM.
The corresponding values for `Cc1c(O[C@H](c2ccc(C(N)=O)cc2)c2ccccc2C#N)ccc2c1OCCC2=O` (single isomer, unassigned) [Example 61a, (*R)-4-((2-cyanophenyl)((8-methyl-4-oxochroman-7-yl)oxy)methyl)benzamide] are 2700 nM, 4600 nM and 990 nM.
Taken in the same sequence, the figures for `Cc1c(O[C@@H](c2ccc(C(N)=O)cc2)c2ccccc2C#N)ccc2c1OCCC2=O` (single isomer, unassigned) [Example 61b, (*S)-4-((2-cyanophenyl)((8-methyl-4-oxochroman-7-yl)oxy)methyl)benzamide] were above 15000 nM, 5200 nM and 960 nM.
As for `Cc1c(O[C@H](c2ccc(C(N)=O)cc2)c2ccc(Cl)cn2)ccc2c1OCCC2=O` (single isomer, unassigned) [Example 62a, (*R)-4-((5-chloropyridin-2-yl)((8-methyl-4-oxochroman-7-yl)oxy)methyl)benzamide], the half-inhibitory concentration (IC50) turned out to be 4700 nM in assay [1] (Homo sapiens, T-cell, 24 h); 8500 nM in assay [2] (Mus musculus, T-cell); 1500 nM against HLA-DRB1*0401.
Regarding `Cc1c(O[C@@H](c2ccc(C(N)=O)cc2)c2ccc(Cl)cn2)ccc2c1OCCC2=O` (single isomer, unassigned) [Example 62b, (*S)-4-((5-chloropyridin-2-yl)((8-methyl-4-oxochroman-7-yl)oxy)methyl)benzamide], the half-inhibitory concentration (IC50) in assay [1] (Homo sapiens, T-cell, 24 h) was determined as 2700 nM; in assay [2] (Mus musculus, T-cell), 1800 nM; at HLA-DRB1*0401 it was 1400 nM.
Turning to `Cc1c(O[C@@H](c2ccc(Cl)cc2)c2ccc(C(N)=O)cn2)ccc2c1OCCC2=O` (single isomer, unassigned) [Example 63b, (*S)-6-((4-chlorophenyl)((8-methyl-4-oxochroman-7-yl)oxy)methyl)nicotinamide], the IC50 in assay [1] (Homo sapiens, T-cell, 24 h) was 4700 nM; in assay [2] (Mus musculus, T-cell), 1300 nM; against HLA-DRB1*0401, 1500 nM.
The corresponding values for `Cc1c(O[C@H](c2ccc(Cl)cc2)c2ccc(C(N)=O)nc2)ccc2c1OCCC2=O` (single isomer, unassigned) [Example 64a, (*R)-5-((4-chlorophenyl)((8-methyl-4-oxochroman-7-yl)oxy)methyl)picolinamide] are 2000 nM, 6000 nM and 1700 nM.
Taken in the same sequence, the figures for `Cc1c(O[C@@H](c2ccc(Cl)cc2)c2ccc(C(N)=O)nc2)ccc2c1OCCC2=O` (single isomer, unassigned) [Example 64b, (*S)-5-((4-chlorophenyl)((8-methyl-4-oxochroman-7-yl)oxy)methyl)picolinamide] were above 15000 nM, 4800 nM and 1800 nM.
As for `Cc1c(O[C@@H](c2ccc(C(N)=O)cc2)c2cccc[n+]2[O-])ccc2c1OCCC2=O` (single isomer, unassigned) [Example 65b, (*S)-2-((4-carbamoylphenyl)((8-methyl-4-oxochroman-7-yl)oxy)methyl)pyridine 1-oxide], the IC50 in assay [1] (24 hrs) was found to be 15000 nM; in assay [2], 2000 nM; on HLA-DRB1*0401, 28000 nM.
Take `Cc1c(O[C@@H](c2ccc(F)cc2)c2ccc(C(N)=O)cc2)ccc2c1OCCC2=O` (single isomer, unassigned) [Example 66a, (*R)-4-((4-Fluorophenyl)((8-methyl-4-oxochroman-7-yl)oxy)methyl)benzamide]: the IC50 in assay [1] (Homo sapiens, T-cell, 24 h) is 4700 nM; in assay [2] (Mus musculus, T-cell) it was 7800 nM; on HLA-DRB1*0401, 2700 nM.
Taken in the same sequence, the figures for `Cc1c(O[C@H](c2ccc(C(N)=O)cc2)c2cccc(F)c2)ccc2c1OCCC2=O` (single isomer, unassigned) [Example 67a, (*R)-4-((3-Fluorophenyl)((8-methyl-4-oxochroman-7-yl)oxy)methyl)benzamide] were 15000 nM, 2700 nM and 3100 nM.
The corresponding values for `Cc1c(O[C@H](c2ccc(C(N)=O)cc2)c2ccccc2F)ccc2c1OCCC2=O` (single isomer, unassigned) [Example 68a, (*R)-4-((2-Fluorophenyl)((8-methyl-4-oxochroman-7-yl)oxy)methyl)benzamide] are 4700 nM, 5600 nM and 1500 nM.
Regarding `Cc1c(O[C@H](c2ccccc2)c2ccc(C(N)=O)cc2)ccc2c1OCCC2=O` (single isomer, unassigned) [Example 69a, (*R)-4-(((8-Methyl-4-oxochroman-7-yl)oxy)(phenyl)methyl)benzamide], the 50% inhibitory concentration (IC50) in assay [1] (Homo sapiens, T-cell, 24 h) came out at 6100 nM; in assay [2] (Mus musculus, T-cell) it was 2200 nM; on HLA-DRB1*0401 it was 2100 nM.
`Cc1c(O[C@H](c2ccccc2)c2ccc(C(=O)O)cc2)ccc2c1OCCC2=O` (single isomer, unassigned) [Example 70a, (*R)-4-(((8-methyl-4-oxochroman-7-yl)oxy)(phenyl)methyl)benzoic acid]: the 50% inhibitory concentration (IC50) was 4700 nM in assay [1] (Homo sapiens, T-cell, 24 h); 7100 nM in assay [2] (Mus musculus, T-cell); 1300 nM at HLA-DRB1*0401.
Taken in the same sequence, the figures for `Cc1c(O[C@@H](c2ccccc2)c2ccc(C(=O)O)cc2)ccc2c1OCCC2=O` (single isomer, unassigned) [Example 70b, (*S)-4-(((8-methyl-4-oxochroman-7-yl)oxy)(phenyl)methyl)benzoic acid] were 9900 nM, 4800 nM and 1500 nM.
For `Cc1c(O[C@H](c2ccc(C(N)=O)cc2)c2ccc(C(=O)O)cc2)ccc2c1OCCC2=O` (single isomer, unassigned) [Example 71a, (*R)-4-((4-carbamoylphenyl)((8-methyl-4-oxochroman-7-yl)oxy)methyl)benzoic acid], the IC50 in assay [1] (Homo sapiens, T-cell, 24 h) was above 15000 nM; in assay [2] (Mus musculus, T-cell), 1500 nM; against HLA-DRB1*0401 it was 1600 nM.
